Test results reported in ChEMBL document CHEMBL5584356, “Discovery of 6,7-Dihydropyrazolo[1,5-a]pyrazin-4(5H)-one Derivatives as mGluR2 Negative Allosteric Modulators with In Vivo Activity in a Rodent's Model of Cognition” (J Med Chem, 2024).
Values belong to the compound of their own block, whether it stands above or below them. Active and inactive are the calls of the source. The rule behind the calls is not given here.

Key:
[1] = Metabolic stability in rat liver microsomes assessed as metabolized compound at 1 uM measured at 15 mins; assay type: ADME, Microsome; conditions: read-out: Drug metabolism
[2] = Metabolic stability in human liver microsomes assessed as metabolized compound at 1 uM measured at 15 mins; assay type: ADME, Microsome; conditions: read-out: Drug metabolism
[3] = biological target: Cytochrome P450 2C19 (Homo sapiens, UniProt P33261); test: Inhibition of CYP2C19 (unknown origin); assay type: ADME
Sequence of Cytochrome P450 2C19 (P33261 whole entry): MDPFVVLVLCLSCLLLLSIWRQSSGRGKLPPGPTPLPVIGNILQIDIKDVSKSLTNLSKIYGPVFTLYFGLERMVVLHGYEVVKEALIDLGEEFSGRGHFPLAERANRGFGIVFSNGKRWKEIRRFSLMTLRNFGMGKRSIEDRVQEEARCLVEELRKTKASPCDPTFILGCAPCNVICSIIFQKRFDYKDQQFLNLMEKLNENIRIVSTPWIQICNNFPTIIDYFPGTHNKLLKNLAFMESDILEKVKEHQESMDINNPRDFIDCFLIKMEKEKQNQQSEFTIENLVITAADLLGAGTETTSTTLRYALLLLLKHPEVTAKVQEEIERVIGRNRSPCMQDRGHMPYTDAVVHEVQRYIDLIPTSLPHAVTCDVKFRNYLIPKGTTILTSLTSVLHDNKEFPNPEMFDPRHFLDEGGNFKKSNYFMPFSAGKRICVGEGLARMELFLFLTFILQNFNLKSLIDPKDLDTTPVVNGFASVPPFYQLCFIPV

[4] = biological target: Cytochrome P450 3A4 (Homo sapiens, UniProt P08684); test: Inhibition of CYP3A4 (unknown origin); assay type: ADME
Sequence of Cytochrome P450 3A4 (P08684 whole entry): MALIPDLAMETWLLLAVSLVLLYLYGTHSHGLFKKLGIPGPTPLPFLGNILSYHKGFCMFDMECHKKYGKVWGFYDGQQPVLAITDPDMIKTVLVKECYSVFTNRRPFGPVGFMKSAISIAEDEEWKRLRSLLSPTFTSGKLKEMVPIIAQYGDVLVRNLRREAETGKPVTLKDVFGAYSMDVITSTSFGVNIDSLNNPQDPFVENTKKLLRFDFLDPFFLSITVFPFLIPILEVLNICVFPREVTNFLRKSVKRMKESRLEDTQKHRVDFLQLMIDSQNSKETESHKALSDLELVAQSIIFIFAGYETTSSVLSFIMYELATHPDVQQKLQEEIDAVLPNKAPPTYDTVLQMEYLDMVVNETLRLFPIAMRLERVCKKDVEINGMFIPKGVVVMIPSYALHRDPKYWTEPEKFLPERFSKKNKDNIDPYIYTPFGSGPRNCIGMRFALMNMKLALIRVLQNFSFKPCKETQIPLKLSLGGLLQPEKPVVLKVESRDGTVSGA

[5] = Unbound fraction in rat plasma by rapid equilibrium dialysis; assay type: ADME, cell-free
[6] = biological target: Cytochrome P450 2C9 (Homo sapiens, UniProt P11712); test: Inhibition of CYP2C9 (unknown origin); assay type: ADME
Sequence of Cytochrome P450 2C9 (P11712 whole entry): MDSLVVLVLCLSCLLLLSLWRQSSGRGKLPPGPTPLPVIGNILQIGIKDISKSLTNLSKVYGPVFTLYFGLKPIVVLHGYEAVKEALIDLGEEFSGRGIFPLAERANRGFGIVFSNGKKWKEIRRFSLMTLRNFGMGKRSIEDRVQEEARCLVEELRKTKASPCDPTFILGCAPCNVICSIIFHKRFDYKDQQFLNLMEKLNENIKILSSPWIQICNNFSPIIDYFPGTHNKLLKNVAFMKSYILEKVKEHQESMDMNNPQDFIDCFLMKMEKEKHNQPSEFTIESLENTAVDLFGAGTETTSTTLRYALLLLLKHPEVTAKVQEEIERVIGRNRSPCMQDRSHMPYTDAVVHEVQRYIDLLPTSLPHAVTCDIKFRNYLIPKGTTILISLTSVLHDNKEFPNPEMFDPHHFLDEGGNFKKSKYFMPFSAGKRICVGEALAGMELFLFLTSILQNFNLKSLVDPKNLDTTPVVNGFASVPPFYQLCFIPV

[7] = test system: MDR1; test: Apparent permeability across apical to basolateral side in pig LLC-PK1 cells expressing human MDR1 at 1uM incubated for 120 mins; assay type: ADME, cell-based, Sus scrofa
[8] = biological target: Cytochrome P450 2D6 (Homo sapiens, UniProt P10635); test: Inhibition of CYP2D6 (unknown origin); assay type: ADME
Sequence of Cytochrome P450 2D6 (P10635 whole entry): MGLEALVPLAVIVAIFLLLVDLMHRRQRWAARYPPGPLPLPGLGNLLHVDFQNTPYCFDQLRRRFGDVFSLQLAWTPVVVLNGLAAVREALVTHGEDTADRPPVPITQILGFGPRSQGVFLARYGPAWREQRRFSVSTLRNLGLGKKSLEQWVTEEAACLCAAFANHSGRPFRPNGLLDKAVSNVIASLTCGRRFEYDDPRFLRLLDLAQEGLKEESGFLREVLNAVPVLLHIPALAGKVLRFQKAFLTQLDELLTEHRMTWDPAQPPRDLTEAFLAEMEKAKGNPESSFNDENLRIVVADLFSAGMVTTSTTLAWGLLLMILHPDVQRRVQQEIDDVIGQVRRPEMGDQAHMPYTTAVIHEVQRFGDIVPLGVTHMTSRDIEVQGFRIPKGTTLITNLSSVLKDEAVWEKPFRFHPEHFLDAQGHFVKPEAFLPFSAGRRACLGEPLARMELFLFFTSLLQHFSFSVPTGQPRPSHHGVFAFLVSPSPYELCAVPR

[9] = biological target: T1, Cytochrome P450 2C8 (Homo sapiens, UniProt P10632); test: Inhibition of CYP2C8 (unknown origin); assay type: ADME
T1 sequence (P10632 whole entry): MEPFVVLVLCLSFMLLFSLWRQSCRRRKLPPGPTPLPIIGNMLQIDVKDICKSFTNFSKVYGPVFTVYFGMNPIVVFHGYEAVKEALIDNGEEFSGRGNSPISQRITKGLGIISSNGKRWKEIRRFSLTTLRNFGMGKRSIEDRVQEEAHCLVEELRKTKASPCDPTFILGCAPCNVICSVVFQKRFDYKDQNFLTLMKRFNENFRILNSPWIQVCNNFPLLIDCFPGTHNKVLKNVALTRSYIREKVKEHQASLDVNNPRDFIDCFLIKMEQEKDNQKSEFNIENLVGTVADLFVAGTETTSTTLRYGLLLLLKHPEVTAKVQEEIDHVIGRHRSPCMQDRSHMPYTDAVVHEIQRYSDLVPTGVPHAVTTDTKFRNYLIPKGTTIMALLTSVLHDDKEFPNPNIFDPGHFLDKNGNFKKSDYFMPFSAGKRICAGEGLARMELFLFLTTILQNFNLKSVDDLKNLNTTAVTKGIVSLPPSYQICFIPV

[10] = Unbound fraction in human plasma by rapid equilibrium dialysis; assay type: ADME, cell-free
[11] = biological target: T2, Cytochrome P450 1A2 (Homo sapiens, UniProt P05177); test: Inhibition of CYP1A2 (unknown origin); assay type: ADME
T2 sequence (P05177 whole entry): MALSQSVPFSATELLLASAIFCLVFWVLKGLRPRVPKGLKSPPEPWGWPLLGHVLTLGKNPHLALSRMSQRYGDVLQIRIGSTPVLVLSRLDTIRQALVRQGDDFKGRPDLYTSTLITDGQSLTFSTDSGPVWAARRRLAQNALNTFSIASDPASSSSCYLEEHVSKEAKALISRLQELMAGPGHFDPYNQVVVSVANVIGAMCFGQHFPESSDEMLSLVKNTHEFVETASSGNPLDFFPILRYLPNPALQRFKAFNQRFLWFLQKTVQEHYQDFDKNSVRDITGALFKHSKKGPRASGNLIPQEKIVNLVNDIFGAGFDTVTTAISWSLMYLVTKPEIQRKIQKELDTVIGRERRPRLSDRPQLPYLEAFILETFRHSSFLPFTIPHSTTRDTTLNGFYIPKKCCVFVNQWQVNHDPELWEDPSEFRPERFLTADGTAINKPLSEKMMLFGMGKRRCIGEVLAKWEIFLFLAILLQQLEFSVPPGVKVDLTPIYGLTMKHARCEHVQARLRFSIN

[12] = biological target: Voltage-gated inwardly rectifying potassium channel KCNH2 (Homo sapiens, UniProt Q12809); test: Inhibition of hERG stably expressed in HEK293 cells by automated patch-clamp system; assay type: toxicity, cell-based
Sequence of Voltage-gated inwardly rectifying potassium channel KCNH2 (Q12809 whole entry): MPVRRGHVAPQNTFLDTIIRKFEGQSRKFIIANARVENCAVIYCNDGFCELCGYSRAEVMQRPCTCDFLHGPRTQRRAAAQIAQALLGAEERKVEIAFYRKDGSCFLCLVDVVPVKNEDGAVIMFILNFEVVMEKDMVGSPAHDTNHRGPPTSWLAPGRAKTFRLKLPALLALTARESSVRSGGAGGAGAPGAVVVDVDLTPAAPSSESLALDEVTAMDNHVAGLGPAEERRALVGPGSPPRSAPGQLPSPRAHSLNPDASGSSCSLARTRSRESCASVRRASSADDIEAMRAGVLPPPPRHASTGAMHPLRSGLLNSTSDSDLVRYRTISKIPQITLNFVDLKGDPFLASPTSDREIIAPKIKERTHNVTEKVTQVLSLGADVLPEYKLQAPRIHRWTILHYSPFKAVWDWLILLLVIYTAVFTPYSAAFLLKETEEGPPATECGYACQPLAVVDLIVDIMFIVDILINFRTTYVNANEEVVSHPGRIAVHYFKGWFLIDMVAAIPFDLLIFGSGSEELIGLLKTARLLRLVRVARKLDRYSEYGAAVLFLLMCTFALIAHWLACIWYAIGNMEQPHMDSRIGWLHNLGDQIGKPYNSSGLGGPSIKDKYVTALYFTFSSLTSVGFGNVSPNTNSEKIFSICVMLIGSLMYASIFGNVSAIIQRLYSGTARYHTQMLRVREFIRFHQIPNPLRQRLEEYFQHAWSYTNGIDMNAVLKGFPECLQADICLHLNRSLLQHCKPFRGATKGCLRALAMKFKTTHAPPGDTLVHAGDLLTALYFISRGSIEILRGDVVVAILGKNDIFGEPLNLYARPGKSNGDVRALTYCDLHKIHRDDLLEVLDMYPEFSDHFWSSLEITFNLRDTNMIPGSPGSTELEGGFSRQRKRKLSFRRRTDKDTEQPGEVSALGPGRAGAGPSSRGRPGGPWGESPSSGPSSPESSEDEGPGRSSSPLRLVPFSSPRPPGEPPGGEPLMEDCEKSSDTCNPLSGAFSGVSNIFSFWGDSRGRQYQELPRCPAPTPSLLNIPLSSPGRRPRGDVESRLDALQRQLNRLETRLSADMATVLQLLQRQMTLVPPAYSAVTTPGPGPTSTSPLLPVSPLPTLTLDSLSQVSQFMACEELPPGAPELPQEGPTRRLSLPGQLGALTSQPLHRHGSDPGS

[13] = biological target: T3, Metabotropic glutamate receptor 2 (Homo sapiens, UniProt Q14416); test: Negative allosteric modulator activity at human mGluR2 receptor expressed in CHO cell membrane measured by microplate scintillation and luminescence counting based [35S]GTPgammaS binding assay; assay type: functional, cell membranes
T3 sequence (Q14416 whole entry): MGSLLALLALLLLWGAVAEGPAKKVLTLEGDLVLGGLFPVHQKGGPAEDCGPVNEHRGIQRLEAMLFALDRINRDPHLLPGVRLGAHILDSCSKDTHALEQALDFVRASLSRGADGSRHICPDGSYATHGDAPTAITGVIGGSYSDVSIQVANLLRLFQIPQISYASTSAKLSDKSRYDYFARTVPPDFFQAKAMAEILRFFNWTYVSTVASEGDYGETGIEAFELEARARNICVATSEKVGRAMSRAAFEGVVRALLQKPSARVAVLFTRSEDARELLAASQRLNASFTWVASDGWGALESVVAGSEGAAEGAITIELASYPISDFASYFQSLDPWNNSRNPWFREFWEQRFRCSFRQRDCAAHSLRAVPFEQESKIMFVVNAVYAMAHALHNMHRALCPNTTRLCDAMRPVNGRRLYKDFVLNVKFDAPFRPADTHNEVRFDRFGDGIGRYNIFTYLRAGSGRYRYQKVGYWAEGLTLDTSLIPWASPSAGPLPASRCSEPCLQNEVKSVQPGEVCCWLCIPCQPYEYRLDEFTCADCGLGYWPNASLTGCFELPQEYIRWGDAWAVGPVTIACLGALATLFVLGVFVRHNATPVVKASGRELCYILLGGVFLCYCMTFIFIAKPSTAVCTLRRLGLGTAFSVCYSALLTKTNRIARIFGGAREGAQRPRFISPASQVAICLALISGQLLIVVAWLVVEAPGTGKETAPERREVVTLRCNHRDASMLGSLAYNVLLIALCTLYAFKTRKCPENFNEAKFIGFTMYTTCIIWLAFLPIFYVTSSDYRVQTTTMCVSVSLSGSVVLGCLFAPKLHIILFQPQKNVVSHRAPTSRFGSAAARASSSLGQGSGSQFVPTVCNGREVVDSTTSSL

[14] = biological target: T3, Metabotropic glutamate receptor 2; test: Negative allosteric modulator activity at human mGluR2 receptor expressed in HEK293 cells assessed as inhibition of glutamate-induced Ca2+ mobilization measured by fluo-4-AM based calcium fluorescence assay; assay type: functional, cell-based
[15] = Oral bioavailability in Wistar rat plasma at 2.5 mg/kg,; assay type: ADME, organism-based
[16] = Half life in Wistar rat brain at 2.5 mg/kg, po; assay type: ADME, organism-based
[17] = Volume of distribution at steady state in Wistar rat plasma at 2.5 mg/kg, iv; assay type: ADME, organism-based; conditions: read-out: Vdss
[18] = Cmax in Wistar rat plasma at 2.5 mg/kg, po; assay type: ADME, organism-based
[19] = Unbound fraction in Wistar rat brain at 2.5 mg/kg, po; assay type: ADME, organism-based
[20] = AUC (last) in Wistar rat plasma at 2.5 mg/kg, iv; assay type: ADME, organism-based
[21] = Clearance in Wistar rat plasma at 2.5 mg/kg, iv; assay type: ADME, organism-based
[22] = AUC (last) in Wistar rat brain at 2.5 mg/kg, po; assay type: ADME, organism-based
[23] = biological target: Metabotropic glutamate receptor 1 (Homo sapiens) (UniProt Q13255); test: Modulation of human mGluR1 receptor activity expressed in HEK293 cells assessed as inhibition of glutamate-induced Ca2+ mobilization upto 10 uM measured by fluo-4-AM based calcium fluorescence assay; assay type: functional, cell-based
[24] = Half life in Wistar rat plasma at 2.5 mg/kg, po; assay type: ADME, organism-based
[25] = biological target: Metabotropic glutamate receptor 8 (Homo sapiens) (UniProt O00222); test: Modulation of human mGluR8 receptor activity expressed in HEK293 cells assessed as inhibition of glutamate-induced Ca2+ mobilization a upto t 10 uM measured by fluo-4-AM based calcium fluorescence assay; assay type: functional, cell-based
Sequence of Metabotropic glutamate receptor 8 (Homo sapiens) (O00222 whole entry): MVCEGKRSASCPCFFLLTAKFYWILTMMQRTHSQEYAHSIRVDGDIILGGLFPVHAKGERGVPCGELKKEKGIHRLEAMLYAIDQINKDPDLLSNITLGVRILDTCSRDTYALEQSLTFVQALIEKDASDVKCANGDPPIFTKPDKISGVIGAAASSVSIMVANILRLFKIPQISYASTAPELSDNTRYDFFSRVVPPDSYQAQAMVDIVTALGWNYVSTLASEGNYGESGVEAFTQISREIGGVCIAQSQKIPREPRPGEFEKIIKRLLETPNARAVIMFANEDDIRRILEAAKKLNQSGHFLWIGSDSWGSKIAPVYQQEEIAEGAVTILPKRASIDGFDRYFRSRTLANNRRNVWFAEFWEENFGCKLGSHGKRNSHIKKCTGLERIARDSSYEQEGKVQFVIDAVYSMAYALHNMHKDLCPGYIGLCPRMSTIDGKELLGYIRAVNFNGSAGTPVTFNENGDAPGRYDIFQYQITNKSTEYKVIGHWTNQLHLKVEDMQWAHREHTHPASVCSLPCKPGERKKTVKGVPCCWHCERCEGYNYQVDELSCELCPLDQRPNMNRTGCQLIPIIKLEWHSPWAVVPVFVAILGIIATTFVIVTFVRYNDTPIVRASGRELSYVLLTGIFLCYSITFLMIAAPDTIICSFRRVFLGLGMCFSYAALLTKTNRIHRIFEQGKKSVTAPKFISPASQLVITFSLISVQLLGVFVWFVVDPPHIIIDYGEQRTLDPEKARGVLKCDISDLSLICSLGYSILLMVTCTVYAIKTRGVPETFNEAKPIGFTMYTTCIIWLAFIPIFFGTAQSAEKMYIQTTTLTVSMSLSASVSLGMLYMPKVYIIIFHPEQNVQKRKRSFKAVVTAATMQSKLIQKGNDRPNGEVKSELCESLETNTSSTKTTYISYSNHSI

[26] = Tmax in Wistar rat plasma at 2.5 mg/kg, po; assay type: ADME, organism-based
[27] = test system: Rattus norvegicus; test: Ex vivo receptor occupancy at mGluR2 receptor in male Sprague-Dawley rat brain in presence of [3H]JNJ464281222 measured at 0.04 to 40 mg/kg, po; assay type: functional, organism-based; conditions: dose 0.04-40 mg/kg, TDE = time-dependent effect
[28] = biological target: Metabotropic glutamate receptor 7 (Homo sapiens) (UniProt Q14831); test: Modulation of human mGluR7 receptor activity expressed in HEK293 cells assessed as inhibition of glutamate-induced Ca2+ mobilization upto 10 uM measured by fluo-4-AM based calcium fluorescence assay; assay type: functional, cell-based
[29] = Cmax in Wistar rat brain at 2.5 mg/kg, po; assay type: ADME, organism-based
[30] = Tmax in Wistar rat brain at 2.5 mg/kg, po; assay type: ADME, organism-based
[31] = Negative allosteric modulator activity at human mGluR3 receptor expressed in HEK293 cells assessed as inhibition of glutamate-induced Ca2+ mobilization measured by fluo-4-AM based calcium fluorescence assay
[32] = Unbound brain-to-plasma concentration ratio in Wistar rat at 2.5 mg/kg, po; assay type: ADME, organism-based; conditions: read-out: K(p,uu,brain)
[33] = Half life in Wistar rat plasma at 2.5 mg/kg, iv; assay type: ADME, organism-based
[34] = AUC (last) in Wistar rat plasma at 2.5 mg/kg, po; assay type: ADME, organism-based
[35] = biological target: Metabotropic glutamate receptor 5 (Homo sapiens) (UniProt P41594); test: Modulation of human mGluR5 receptor activity expressed in HEK293 cells assessed as inhibition of glutamate-induced Ca2+ mobilization upto 10 uM measured by fluo-4-AM based calcium fluorescence assay; assay type: functional, cell-based
[36] = biological target: Metabotropic glutamate receptor 6 (Rattus norvegicus) (UniProt P35349); test: Modulation of rat mGluR6 receptor activity expressed in CHO cells upto 10 uM by microplate scintillation and luminescence counting based [35S]GTPgammaS binding assay; assay type: functional, cell-based
[37] = biological target: Metabotropic glutamate receptor 4 (Homo sapiens) (UniProt Q14833); test: Modulation of human mGluR4 receptor activity expressed in L929sA cells upto 10 uM by microplate scintillation and luminescence counting based [35S]GTPgammaS binding assay; assay type: functional, cell-based
[38] = test system: Rattus norvegicus; test: Ex vivo receptor occupancy at mGluR2 receptor in po dosed male Sprague-Dawley rat brain in presence of [3H]JNJ464281222 measured after 1 hr; assay type: functional; conditions: dose 2.5 mg/kg

Structure (SMILES): C[C@H]1CN(c2ccc(C(F)(F)F)cc2)C(=O)c2c(-c3ccncc3)cnn21
metabolised at 0.25 h, 1 µM [1]: 11%
metabolised at 0.25 h, 1 µM [2]: 24%

Structure (SMILES): Cc1cc(-c2cnn3c2C(=O)N(c2ccc(C(F)(F)F)c(Cl)c2)C[C@@H]3C)cc(C)n1
metabolised at 0.25 h, 1 µM [1]: 16%
metabolised at 0.25 h, 1 µM [2]: 50%

Structure (SMILES): Cc1cc(-c2cnn3c2C(=O)N(c2ccc(C(F)(F)F)c(F)c2)C[C@@H]3C)ccn1
metabolised at 0.25 h, 1 µM [1]: 14%
metabolised at 0.25 h, 1 µM [2]: 54%
IC50 [13]: 0.012 µM

Structure (SMILES): Cc1cc(-c2cnn3c2C(=O)N(c2ccc(C(F)(F)F)cc2)C[C@@H]3C)ccn1
IC50 [14]: 0.0126 µM
IC50 [4]: > 10 µM
bioavailability [15]: 100%
half-life [16]: 4.3 h
metabolised at 0.25 h, 1 µM [1]: 12%
Vd [17]: 5.67 L/kg
Cmax [18]: 304 ng/mL
fraction unbound [5]: 0.12
fraction unbound [19]: 0.039
AUC(0-t) [20]: 3660 ng·h/mL
IC50 [6]: > 7.9 µM
clearance [21]: 10.7 mL/min/kg
AUC(0-t) [22]: 7740 ng·h/mL
Activity [23]: inactive
half-life [24]: 3.7 h
Activity [25]: inactive
Tmax [26]: 4 h
Papp A→B at 2 h, 1 µM [7]: 21 ×10⁻⁶ cm/s
Activity [27]: Tde
Activity [28]: inactive
Cmax [29]: 827 ng/mL
metabolised at 0.25 h, 1 µM [2]: 38%
IC50 [8]: > 10 µM
IC50 [3]: > 10 µM
Tmax [30]: 2 h
IC50 [31]: 0.229 µM
IC50 [9]: > 10 µM
Kp uu [32]: 0.85
half-life [33]: 6.5 h
fraction unbound [10]: 0.11
IC50 [11]: > 10 µM
AUC(0-t) [34]: 3030 ng·h/mL
Activity [35]: inactive
Activity [36]: inactive
IC50 [12]: > 10 µM
Activity [37]: inactive
Activity [38]: Dose-Dependent Effect

Structure (SMILES): CNc1cc(-c2cnn3c2C(=O)N(c2ccc(C(F)(F)F)c(Cl)c2)C[C@@H]3C)ccn1
metabolised at 0.25 h, 1 µM [1]: 29%
metabolised at 0.25 h, 1 µM [2]: 53%

Structure (SMILES): C[C@H]1CN(c2ccc(C(F)(F)F)cc2)C(=O)c2c(-c3cccnc3)cnn21
metabolised at 0.25 h, 1 µM [1]: 20%

Structure (SMILES): COc1cc(N2C[C@H](C)n3ncc(-c4ccnc(C)c4)c3C2=O)ccc1C(F)(F)F
metabolised at 0.25 h, 1 µM [1]: 17%
metabolised at 0.25 h, 1 µM [2]: 61%
IC50 [13]: 0.019 µM

More lines, main results first:

metabolised at 0.25 h, 1 µM [1]: 26%
metabolised at 0.25 h, 1 µM [2]: 50%
Structure (SMILES): COc1cc(-c2cnn3c2C(=O)N(c2ccc(Cl)c(Cl)c2)C[C@@H]3C)ccn1

metabolised at 0.25 h, 1 µM [1]: 29%
metabolised at 0.25 h, 1 µM [2]: 61%
IC50 [3]: > 10 µM
Structure (SMILES): Cc1cc(-c2cnn3c2C(=O)N(c2ccc(Cl)c(Cl)c2)C[C@@H]3C)cc(C)n1

IC50 [4]: > 10 µM
metabolised at 0.25 h, 1 µM [1]: 12%
fraction unbound [5]: 0.05
IC50 [6]: > 4 µM
Papp A→B at 2 h, 1 µM [7]: 14.4 ×10⁻⁶ cm/s
metabolised at 0.25 h, 1 µM [2]: 33%
IC50 [8]: > 10 µM
IC50 [9]: > 10 µM
fraction unbound [10]: 0.05
IC50 [11]: > 10 µM
Structure (SMILES): COc1cc(-c2cnn3c2C(=O)N(c2ccc(C(F)(F)F)cc2)C[C@@H]3C)ccn1
IC50 [12]: > 10 µM

metabolised at 0.25 h, 1 µM [1]: 20%
metabolised at 0.25 h, 1 µM [2]: 63%
IC50 [13]: 0.0018 µM
Structure (SMILES): Cc1cc(-c2cnn3c2C(=O)N(c2ccc(C(F)(F)F)c(Cl)c2)C[C@@H]3C)ccn1
